From patent US20070093520A1, “Method of treatment of diarrhea-predominant irritable bowel syndrome in a subject” (priority 2005, published 2007)
Like-named read-outs stand apart in the source and are kept apart here.

Test system: diarrhea-predominant IBS subjects
Type: in vivo, human
Settings: for Number of subjects who died / Primary reason for withdrawal: Adverse event and lack of efficacy / Primary reason for withdrawal: Baseline complaint/adverse event: 2 mg TID
Method: The study was performed in approximately 150 study centers. Approximately 1600 eligible subjects were to be given cilansetron 2 mg TID. At Visit 1, pre-treatment assessments were conducted. […] Subjects were to return to the study site one month later for Visit 3 (Day 31) for their first interim assessment. […] All subjects who discontinued from the study were to have the same post-study assessments required at Visit 7 performed at their early termination visit. […]
Stool specimens were analyzed at every visit for occult blood. An independent GERB had been established to provide advice on GI AEs during the course of the study.
Adverse events were assessed at Baseline, at each clinic visit, and at the end of the study (Month 12 or the early termination visit). All AEs, which occurred during the study were followed up in accordance with good medical practice until resolved or judged no longer clinically significant, or if a condition was chronic, until fully characterized. Adverse events could occur in the specified follow-up period and, regardless of the interval since the last administration of the study medication, were treated in the same manner as an AE which occurred during the treatment with study medication. Each AE was evaluated for duration, severity, seriousness, and causal relationship to the investigational drug. The action taken and the outcome were also recorded.
Specifically, subjects who were lost to follow-up and had no post-Baseline contact with the site were excluded from the Safety population. The subjects who discontinued from the study due to lost to follow-up were identified based on the information collected on the study termination CRF page.
After the pretreatment assessment at Visit 1 (Days […] to −3), subjects were to return to the study site for a Baseline assessment and start the treatment at Visit 2 (Day 1).
For the by time-interval analyses of disposition, prevalence of AEs, and of markedly abnormal and predefined changes in laboratory values, vital signs, and ECGs, the following interval windows were used:
Adverse events that were already present prior to the first dose of cilansetron study medication but increased in severity afterwards were considered as treatment-emergent.
The 5% cutoff point was based on the incidence within higher level terms.
Subjects were counted at most once for each primary system organ class and preferred term. Serious AEs that resolved prior to receiving study medication or occurred more than 30 days after the last dose of study medication were not included in the incidence tables. A listing of all SAEs is presented; SAEs with onset prior to receiving study medication or more than 30 days after discontinuation of study medication were flagged. The listing presents lower level term and preferred term of the SAE, severity, action taken, outcome, and relationship of the SAE, start and stop date of the SAE, study day of onset of the SAE, age, race, and sex.

[1] = Cilansetron 2 mg, N=1454, % of appropriate gender
[2] = Study 3008, 2 mg TID (N = 1454)
[3] = Study 3008, of subjects who received study medication
[4] = TEAE incidence, 2 mg, Safety Population, HLT

Cc1nccn1C[C@H]1CCc2c(c3cccc4c3n2CCC4)C1=O [cilansetron, (R)-(−)-4,5,6,8,9,10-hexahydro-10-[(2-methyl-1H-imidazol-1-yl)methyl]-11H-pyrido-[3,2,1-jk]-carbazol-11-one]
TEAE incidence: Transient Cerebrovascular Events (Cilansetron 2 mg, N=1454): 1 (<1%) n (%)
TEAE incidence: Transient Global Amnesia (Cilansetron 2 mg, N=1454): 1 (<1%) n (%)
TEAE incidence: Transient Ischaemic Attack (Cilansetron 2 mg, N=1454): 1 (<1%) n (%)
TEAE incidence: Tremor (Cilansetron 2 mg, N=1454): 2 (<1%) n (%)
TEAE incidence: Tremor (Excl Congenital) (Cilansetron 2 mg, N=1454): 2 (<1%) n (%)
TEAE incidence: Triglyceride Analyses (Cilansetron 2 mg, N=1454): 11 (<1%) n (%)
TEAE incidence: Urethritis Non-Specific (Cilansetron 2 mg, N=1454): 1 (<1%) n (%)
TEAE incidence: Urinalysis NEC (Cilansetron 2 mg, N=1454): 20 (1%) n (%)
TEAE incidence: Urine Bilirubin Increased (Cilansetron 2 mg, N=1454): 2 (<1%) n (%)
TEAE incidence: Urine Ketone Body Present (Cilansetron 2 mg, N=1454): 2 (<1%) n (%)
TEAE incidence: Vascular Tests NEC (Incl Blood Pressure) (Cilansetron 2 mg, N=1454): 7 (<1%) n (%)
TEAE incidence: Vasovagal Attack (Cilansetron 2 mg, N=1454): 1 (<1%) n (%)
TEAE incidence: Viraemia NOS Present (Cilansetron 2 mg, N=1454): 3 (<1%) n (%)
TEAE incidence: Vitamin Analyses (Cilansetron 2 mg, N=1454): 1 (<1%) n (%)
TEAE incidence: Vitamin B12 Decreased (Cilansetron 2 mg, N=1454): 1 (<1%) n (%)
TEAE incidence: Vomiting NOS (Cilansetron 2 mg, N=1454): 25 (2%) n (%)
TEAE incidence: Weight Decreased (Cilansetron 2 mg, N=1454): 3 (<1%) n (%)
TEAE incidence: Weight Increased (Cilansetron 2 mg, N=1454): 13 (<1%) n (%)
TEAE incidence: White Blood Cell Analyses (Cilansetron 2 mg, N=1454): 25 (2%) n (%)
TEAE incidence: White Blood Cell Count Decreased (Cilansetron 2 mg, N=1454): 4 (<1%) n (%)
TEAE incidence: White Blood Cell Count Increased (Cilansetron 2 mg, N=1454): 1 (<1%) n (%)
TEAE incidence: White Blood Cells Urine (Cilansetron 2 mg, N=1454): 3 (<1%) n (%)
TEAE incidence: White Blood Cells Urine Positive (Cilansetron 2 mg, N=1454): 2 (<1%) n (%)
TEAE incidence: abdominal pain NOS (Cilansetron 2 mg, N=1454): 156 (11%) n (%)
TEAE incidence: back pain (Cilansetron 2 mg, N=1454): 40 (3%) n (%)
TEAE incidence: constipation (Cilansetron 2 mg, N=1454): 222 (15%) n (%)
TEAE incidence: flatulence (Cilansetron 2 mg, N=1454): 38 (3%) n (%)
TEAE incidence: flatulence, bloating and distension (Cilansetron 2 mg, N=1454): 91 (6%) n (%)
TEAE incidence: headache NOS (Cilansetron 2 mg, N=1454): 100 (7%) n (%)
TEAE incidence: nasopharyngitis (Cilansetron 2 mg, N=1454): 44 (3%) n (%)
TEAE incidence: nausea (Cilansetron 2 mg, N=1454): 78 (5%) n (%)
TEAE incidence: nausea and vomiting symptoms (Cilansetron 2 mg, N=1454): 92 (6%) n (%)
TEAE incidence: sinusitis NOS (Cilansetron 2 mg, N=1454): 25 (2%) n (%)
Total Number of Subjects with at Least One TEAE (Cilansetron 2 mg, N=1454): 931 (64%) n (%)
TEAE incidence: Female Reproductive Tract Infections* [1]: 4 (<1%) n (%)
TEAE incidence: Oophoritis* [1]: 1 (<1%) n (%)
TEAE incidence: Pelvic Inflammatory Disease NOS* [1]: 1 (<1%) n (%)
TEAE incidence: Vaginal Candidiasis* [1]: 5 (<1%) n (%)
TEAE incidence: Vaginitis* [1]: 2 (<1%) n (%)
TEAE incidence: Vulvovaginitis Trichomonal* [1]: 1 (<1%) n (%)
TEAEs that led to dose reduction (Study 3008): 2%
TEAEs that led to permanent discontinuation of study medication (Study 3008): Thirteen
overall incidence of TEAEs possibly, probably, or unlikely related to study medication (Study 3008): 42%
severe TEAEs (Study 3008): 9%
special interest TEAEs (Study 3008): 54%
subjects with a treatment emergent SAE (Study 3008): Six
subjects with at least one TEAE (Study 3008): Sixty-four
withdrawal for AEs (combined categories) (Study 3008): 13%
withdrawal for lack of efficacy (combined categories) (Study 3008): 12%
Number of subjects who died (Study 3008): 1 n
Primary reason for withdrawal: Adverse event and lack of efficacy (Study 3008): 119 n
Primary reason for withdrawal: Baseline complaint/adverse event (Study 3008): 75 n
Number of deaths [2]: 1 (<1) n (%)
Number of subjects who permanently discontinued study medication due to a TEAE [2]: 192 (13) n (%)
Number of subjects with at least one AE of special interest [2]: 789 (54) n (%)
Number of subjects with at least one SAE [2]: 85 (6) n (%)
Number of subjects with at least one TEAE [2]: 931 (64) n (%)
Number of subjects with at least one TEAE leading to dose reduction [2]: 34 (2) n (%)
Number of subjects with at least one related TEAE [2]: 604 (42) n (%)
Number of subjects with at least one severe TEAE [2]: 138 (9) n (%)
Number of subjects who died [3]: (<1) %
Primary reason for withdrawal: Adverse event and lack of efficacy [3]: (8) %
Primary reason for withdrawal: Baseline complaint/adverse event [3]: (5) %
Acnes [4]: 2 (<1%) n (%)
Affect Alterations NEC [4]: 2 (<1%) n (%)
Alopecias [4]: 6 (<1%) n (%)
Anxiety Disorders NEC (Incl Obsessive Compulsive Disorder) [4]: 1 (<1%) n (%)
Anxiety Symptoms [4]: 26 (2%) n (%)
Apocrine and Eccrine Gland Disorders [4]: 8 (<1%) n (%)
Appetite Disorders [4]: 15 (1%) n (%)
Arthropathies NEC [4]: 6 (<1%) n (%)
Asthenic Conditions [4]: 38 (3%) n (%)
Benign and Malignant Breast Neoplasms* [4]: 2 (<1%) n (%)
Bladder Disorders NEC [4]: 1 (<1%) n (%)
Bladder and Urethral Symptoms [4]: 18 (1%) n (%)
Breast Disorders NEC* [4]: 1 (<1%) n (%)
Breast Signs and Symptoms* [4]: 4 (<1%) n (%)
Breathing Abnormalities [4]: 7 (<1%) n (%)
Bronchospasm and Obstruction [4]: 10 (<1%) n (%)
Bursal Disorders [4]: 1 (<1%) n (%)
Cardiac Conduction Disorders [4]: 4 (<1%) n (%)
Cardiac Signs and Symptoms NEC [4]: 5 (<1%) n (%)
Cartilage Disorders [4]: 1 (<1%) n (%)
Cervix Disorders NEC* [4]: 1 (<1%) n (%)
Chest and Lung Injuries NEC [4]: 1 (<1%) n (%)
Connective Tissue Disorders (Excl Le) [4]: 1 (<1%) n (%)
Coronary Artery Disorders NEC [4]: 2 (<1%) n (%)
Coughing and Associated Symptoms [4]: 28 (2%) n (%)
Depressive Disorders [4]: 28 (2%) n (%)
Dermal and Epidermal Conditions NEC [4]: 4 (<1%) n (%)
Dermatitis and Eczema [4]: 16 (1%) n (%)
Diabetes Mellitus (Incl Subtypes) [4]: 4 (<1%) n (%)
Dissociative States [4]: 1 (<1%) n (%)
Disturbances in Initiating and Maintaining Sleep [4]: 20 (1%) n (%)
Elevated Cholesterol [4]: 9 (<1%) n (%)
Elevated Triglycerides [4]: 8 (<1%) n (%)
Erection and Ejaculation Conditions and Disorders* [4]: 2 (<1%) n (%)
Erythemas [4]: 1 (<1%) n (%)
Extremity Deformities [4]: 1 (<1%) n (%)
Eye Injuries NEC [4]: 1 (<1%) n (%)
Fear Symptoms [4]: 1 (<1%) n (%)
Febrile Disorders [4]: 20 (1%) n (%)
Fluctuating Mood Symptoms [4]: 2 (<1%) n (%)
Food Malabsorption and Intolerance Syndromes (Excl Sugar Intolerance) [4]: 1 (<1%) n (%)
General Nutritional Disorders NEC [4]: 3 (<1%) n (%)
General Signs and Symptoms NEC [4]: 14 (<1%) n (%)
Heart Failure Signs and Symptoms [4]: 1 (<1%) n (%)
Hyperglycaemic Conditions NEC [4]: 4 (<1%) n (%)
Hyperlipidaemias NEC [4]: 3 (<1%) n (%)
Increased Physical Activity Levels [4]: 1 (<1%) n (%)
Intervertebral Disc Disorders NEC [4]: 3 (<1%) n (%)
Ischaemic Coronary Artery Disorders [4]: 7 (<1%) n (%)
Joint Related Signs and Symptoms [4]: 31 (2%) n (%)
